Experimental data reported in US20060276339A1, “Methods and compositions for increasing the efficacy of biologically-active ingredients” (priority 2002, published 2006).
In brackets after ≈: the same amount, converted by molar mass.

What was measured:
[1] = tested on: AtPGP-1 overexpressing (MDR OE) Arabidopsis thaliana plants; format: in vivo; details: AtPGP-1 overexpressing plants; cycloheximide 500 ng/ml, phosphatase inhibitor 1 mM; 10-20 days
Description: Similar methods were employed to express AtPGP-1 in Arabidopsis thaliana plants with the following modifications. […] This plasmid was then transformed into A. tumefaciens as described above, which was used to infect root calli to produce transgenic plants expressing AtPGP-1.
(§1) Plant Growth: Arabidopsis seeds were sown in a solid germination media containing MS salts (Sigma Chemical, St. Louis, Mo.), 2% sucrose, 0.8% agar, and vitamins (Valvekens et al., 1992). For selection assays, one of the following, or a combination of both, was added to media (cooled to less than 50° C. before adding) immediately prior to pouring into plates: cycloheximide at a final concentration of 500 ng/ml; α,β-methyleneadenosine 5′-diphosphate at a final concentration of 1 mM. Plant growth was measured by germination percentage after 10-20 days.

[2] = tested on: wild-type Arabidopsis thaliana plants; test: Arabidopsis germination selection assay, wild-type plants; format: in vivo; details: cycloheximide 500 ng/ml, phosphatase inhibitor 1 mM, 10-20 days
Protocol: Plant growth: Arabidopsis thaliana seeds were sown in a solid germination media containing MS salt, 2% sucrose, 0.8% agar, and vitamins (Valvekens et al., 1992). For selection assays, cycloheximide was spread on the media to achieve a final concentration of […]. Plant growth was measured by germination percentage after 6-30 days.
as §1
All other materials and methods were discussed above in Example 4.

[3] = tested on: ectoapyrase activity associated with the plasma membrane of cholinergic nerve terminal of Torpedo mannorata electric organs; details: Torpedo electric organ nerve terminal plasma membrane; cited from earlier work
INVSCI yeast = test: Yeast drug selection growth assay, wild-type strain; format: cell-based, Saccharomyces cerevisiae; details: cycloheximide 500 ng/ml
Description: (§2) Expression of AtPGP-1 in yeast: The AtPGP-1 cDNA (Arabidopsis thaliana MDR gene, accession #X61370) was subcloned into pVT101 downstream of the ADH promoter to create the AtPGP-1/pVT101 construct. AtPGP-1/pVT101 and pVT101 were transformed into Saccharomyces cerevisiae INVSCI (genotype: MATa, his3-Δ1, leu2, trpl-289, ura3-52) and YMR4 (genotype: MATαhis3-11,15, leu2-3, 112ura3Δ5, can Res pho5, 3::ura3A1) by a PEG lithium acetate procedure (Eble, 1992) and selected on uracil dropout medium.
(§3) Yeast Growth: Yeast were grown at 30° C. under conditions of constant selection for uracil auxotrophy. YNB (Bio101, Vista, Calif.) supplemented with CSM (uracil dropout) and 2% glucose was used to grow strains having pVT101 constructs. Cycloheximide (Sigma Chemical, St. Louis, Mo.) was added to liquid media or spread on solid media to achieve a final concentration of 500 ng/ml. Nigencm (Sigma Chemical, St. Louis, Mo.) was added to liquid media or spread on solid media to achieve a final concentration of 25 μg/ml. Yeast strains used in cycloheximide selection assays were always propagated in the presence of the cycloheximide on plates and then streaked onto new plates containing drug or no drug, such that induced resistance existed in each strain at the time of the start of the assay. […] Yeast selection assays in liquid media were quantitated by turbidity as measured by absorbance at OD600.

YMR4 yeast [4] = test: Yeast drug selection growth assay, phosphatase deficient mutant; format: cell-based, Saccharomyces cerevisiae
Description: as §2, §3

SW-13Vb003 = test: IC50 test (NTT), 96 well plate, vinblastine resistant line; format: cell-based; details: 96 h, read-out: IC50 (sensitive at)
Protocol: (§4) In order to determine the effect of ectophosphatase inhibitors on tumor cells resistant to a chemotherapeutic agent, 2 […] tumor cell lines were tested, a vinblastine resistant line (SW-13Vb003) and its vinblastine sensitive parent line, SW-13. A standard 4 day incubation at 37° C. and 5% CO2 was used. IC50 tests (NTT) were done using standard methodology in 96 well plate format with inhibitor concentrations ranging from 0-90 μg/ml (DMEM media). […] For NGXT194, SW-13 was sensitive at 20 μg/ml, whereas the vinblastine resistant line SW-13Vb003 was sensitive at 10 μg/ml. For NGXT196, SW-13 was sensitive at 30 μg/ml, whereas the vinblastine resistant line SW-13Vb003 was sensitive at 10 μg/ml. For NGXT1915, SW-13 was sensitive at 50 μg/ml, whereas the vinblastine resistant line SW-13Vb003 was sensitive at 20 μg/ml.

SW-13 = test: IC50 test (NTT), 96 well plate, vinblastine sensitive parent line; format: cell-based; details: Homo sapiens, SW13, 96 h, read-out: IC50 (sensitive at)
Protocol: as §4

[5] = tested on: S. cerevisiae yeast cells (YMR4, INVSC); test: Yeast growth in suspension with ATP and drug (turbidity); format: cell-based, Saccharomyces cerevisiae; details: 100 mM ATP, 48 hours
Protocol: Cell lines: Cell lines were the same as those described above in Example 4 and 5. YMR4 MDRI is the phosphatase mutant yeast strain overexpressing AtPGP-1; YMR4 pVT011 contains vector alone; INVSC MDRI is the wild-type yeast strain overexpressing AtPGP-1; and INVSC pVT101 contains vector alone.
Selection in drug: To create drug resistant yeast strains, all four cell lines were grown up in the presence of 500 ng/ml of cycloheximide, and transferred to other cycloheximide containing plates after a period of four to six days. This transfer of cell lines and subculturing continued such that the yeast cells grew in the presence of cycloheximide for a period of at least a month. Cells cultured in media alone: To create cell lines that had not been preselected for their ability to grow in drug, yeast strains were grown on plates containing YNB (Bio101, Vista, Calif.) without uracil (-URA) to maintain the presence of the vector (which supplies URA) without any drugs added.
Growth of cells in suspension for ATP and drug selection experiments: Cells were transferred into 5 ml YNB-URA liquid media for turbidity measurements. All cell lines (both non-drug selected and drug-selected) were grown in media with the addition of either nothing, 500 ng/ml cycloheximide, 100 mM ATP, or 500 ng/ml cycloheximide and 100 mM ATP. Turbidity readings were taken after 48 hours.

YMR4 yeast [6] = test: Yeast growth in suspension, adenosine salvage pathway experiments (turbidity); format: cell-based, Saccharomyces cerevisiae; details: added to media with cycloheximide, 72 hours
Protocol: Selection in drug: To create drug resistant yeast strains, all four cell lines were grown up in the presence of 500 ng/ml of cycloheximide, and transferred to other cycloheximide containing plates after a period of four to six days. This transfer of cell lines and subculturing continued such that the yeast cells grew in the presence of cycloheximide for a period of at least a month.
Growth of cell lines in suspension for salvage pathway experiments: All cell lines were grown in liquid media either containing drug (for the drug selected lines) or not containing drug (for the non-drug selected lines). When the cultures reached a turbidity of 1.00 as measured at a wavelength of 600 in a spectrophotometer (OD600=1.00), 10 μl of each culture was then removed and placed in either media with nothing added, 3 mM potassium phosphate; 3 mM adenosine; 9 mM potassium phosphate and 3 mM adenosine (for controls); potassium phosphate and cycloheximide; adenosine and cycloheximide; adenosine, cycloheximide, and potassium phosphate. Cell cultures were further grown for 72 hours, and their turbidity was determined by OD600 readings on a spectrophotometer.

## Nc1ncnc2c1ncn2[C@@H]1O[C@H](COP(=O)(O)CP(=O)(O)O)[C@@H](O)[C@H]1O [phosphatase inhibitor, α,β-methyleneadenosine 5′-diphosphate]
[1]
  germination rate: 83%
[2]
  germination rate: 90%

## Cc1ccc(C(=O)Nc2ccc(S(=O)(=O)O)c3cc(S(=O)(=O)O)cc(S(=O)(=O)O)c23)cc1NC(=O)c1cccc(NC(=O)Nc2cccc(C(=O)Nc3cc(C(=O)Nc4ccc(S(=O)(=O)O)c5cc(S(=O)(=O)O)cc(S(=O)(=O)O)c45)ccc3C)c2)c1 [Suramin, 8,8′[Carbonylbis[imino-3,1-phenylenecarbonylimino(4-methyl-3,1-phenylene)carbonylimino]]bis-1,3,5-naphthalenetrisulfonic acid]
[3]
  inhibition of ectoapyrase activity: potent non-competitive inhibitor

## C[C@@H]1C[C@@H]([C@H](O)CC2CC(=O)NC(=O)C2)C(=O)[C@@H](C)C1 [cycloheximide]
INVSCI yeast
  yeast growth in drug: did grow
[1]
  germination rate: 50%
[2]
  germination rate: 2%
YMR4 yeast [4]; YMR4 mutant, cycloheximide 500 ng/ml
  yeast growth in drug: did not grow

## O=C(Cc1cccc2ccccc12)N/N=C/c1ccc(Br)cc1 [NGXT196]
SW-13Vb003
  IC50: 10 µg/mL (≈ 27.2 µM)
SW-13
  IC50: 30 µg/mL (≈ 81.7 µM)

## CO[C@@H]1C[C@@H](C[C@H]2CC[C@H](C)[C@H]([C@@H](C)C(=O)O)O2)O[C@]2(O[C@](C)([C@H]3CC[C@@](C)([C@@H]4O[C@@H]([C@H]5O[C@@](O)(CO)[C@H](C)C[C@@H]5C)C[C@@H]4C)O3)C[C@H]2C)[C@@H]1C [nigericin]
YMR4 yeast [4]; YMR4 containing vector alone, nigericin 25 μg/ml
  yeast growth in drug: reduced growth

## C/C(=N\NC(=O)c1cccc(C)c1)c1ccc2ccccc2c1 [NGXT1915]
SW-13Vb003
  IC50: 20 µg/mL (≈ 66.1 µM)
SW-13
  IC50: 50 µg/mL (≈ 165 µM)

## Nc1ncnc2c1ncn2[C@@H]1O[C@H](COP(=O)(O)OP(=O)(O)OP(=O)(O)O)[C@@H](O)[C@H]1O [ATP]
[5]; cells not previously selected in drug
  yeast growth in high levels of ATP: able to grow
[5]; cells previously grown in drug (resistant), not overexpressing AtPGP-1
  yeast growth in high levels of ATP: not able to grow

## Nc1ncnc2c1ncn2[C@@H]1O[C@H](CO)[C@@H](O)[C@H]1O [adenosine]
YMR4 yeast [6]
  effect on resistance of yeast cells to cycloheximide: did not enhance resistance

## O=P(O)(O)O [phosphate, potassium phosphate]
YMR4 yeast [6]
  effect on resistance of yeast cells to cycloheximide: did not enhance resistance

## Cc1ccc(O)c(/C=N/NC(=O)Cc2cccc3ccccc23)c1 [NGXT194]
SW-13Vb003
  IC50: 10 µg/mL (≈ 31.4 µM)
SW-13
  IC50: 20 µg/mL (≈ 62.8 µM)
